Results: paper PMC8400394, “Adsorption of Recombinant Human β-Defensin 2 and Two Mutants on Mesoporous Silica Nanoparticles and Its Effect against Clavibacter michiganensis subsp. michiganensis” (Nanomaterials, 2021)

What was measured:
Type in all cases: cell-based, Clavibacter michiganensis subsp. michiganensis
Cmm [1] = experiment: Antimicrobial activity of AMPs by the plaque diffusion method; settings: plaque diffusion on MHB agar with Cmm; 5, 10 and 15 μL of 50 μM; CH3COOH 10 mM pH 2.4 and Tris 50 mM pH 8.4; 24 h, 28 °C; triplicate
Description: (§1) Cmm was cultivated in Mueller-Hinton broth (MHB) at […] for 16 h at 180 rpm. Employing 0.5 mL of the previous culture, 50 mL of fresh MHB were inoculated. The culture was maintained under the conditions mentioned above until the OD600 reached 0.2–0.3. 9.5 mL of MHB agar prewarmed to 37 °C were added to 0.5 mL of the culture. It was homogenized and then poured onto a Petri dish containing MHB agar to form a uniform layer of 2 mm. Once the surface was dry, different volumes (5, 10 and 15 μL) of the defensins under study (50 μM) were added to the surface. The plates were incubated for 24 h at 28 °C, then the formed inhibition halos were measured. CH3COOH (acid acetic)10 mM pH 2.4 and Tris 50 mM pH 8.4 were used both as negative controls. The IC50 was determined based on that reported by Tay and Liu. This measurement was defined as the minimum concentration of AMP that is required to inhibit 50% of the growth of Cmm.

Cmm [2] = experiment: Antimicrobial activity of MSN/AMPs complexes in solid medium; settings: plaque diffusion on MHB with Cmm; 5, 10, 15 µL; 24 h, 28 °C; MSN 5 mg/mL, AMPs 0.5 mg/mL; triplicate
Description: The antimicrobial activity of the MSN/AMPs complexes was evaluated both in solid and liquid media. For the solid medium, the adsorption process was carried out as described in the previous section. The pellet was resuspended in PBS (1 mL). Afterwards, different volumes of the MSN/AMPs mixture were deposited onto Petri dishes with MHB medium and Cmm (see antimicrobial activity test section and IC50 determination). The plates were incubated for 24 h at 28 °C, the diameter of the inhibition halos was measured. MSN (5 mg/mL) and AMPs (0.5 mg/mL) were employed as controls. These experiments were performed by triplicates.

Cmm [3] = experiment: Effect of pepsin on AMPs and MSN/AMPs complexes (growth of Cmm after protease treatment); settings: AMPs (1 mg/mL) treated with pepsin (1 mg/mL), 5:1 peptide:enzyme; then Cmm culture 28 °C, 24 h; CFU count; duplicate
Description: After removing the supernatant and drying the MSN/AMP complexes, 200 µL of the pepsin (1 mg/mL) were added and incubated at 37 °C for 16 h under constant shaking. The microtubes were then centrifuged at 5000× g for 10 min at 4 °C. The resulting pellet was washed twice with deionized water and centrifuged at 5000× g for 10 min at 4 °C between each wash. MSN/AMPs complexes were resuspended in 3 mL of diluted Cmm culture and incubated at 28 °C for 24 h at 180 rpm. After the incubation period, serial dilutions were performed up to 1 × 10^6 of which 100 µL were taken and Petri dishes were poured with 30 mL MHB medium. The plates were incubated at 28 °C for 72 h and the colonies were counted, bacterial growth was expressed as CFU/mL. Controls were prepared with MSN (5 mg/mL) in PBS and AMPs (1 mg/mL) treated with protease (1 mg/mL) in a 5:1 ratio (peptide:enzyme). The experiments for this assay were performed by duplicate.

Cmm [4] = experiment: Determination of IC50 of the recombinant AMPs; settings: Cmm in MHB, minimum concentration of AMP that inhibits 50% of the growth
Description: as §1

## human β-defensin-2 [hβD2]
Cmm [1]
  antimicrobial activity (inhibition halos): exhibited inhibition halos
Cmm [2]
  antimicrobial activity in solid medium (inhibition halos): greater inhibition than MNS/hβD2
Cmm [3]
  Cmm growth inhibition after pepsin treatment, AMPs without the mesoporous matrix: 99.98%
Cmm [4]; AMP in CH3COOH 10 mM pH 2.4
  IC50: 3.64 ± 0.33 µg/mL
Cmm [4]; AMP in Tris 50 mM pH 8.4
  IC50: 3.61 ± 0.47 µg/mL
